US9550782B2, “Compounds and methods for treating diabetes” (Medivation Technologies, Inc., priority 2011, dated 2017)

Assays:
[1] = molecular target: T1, human recombinant adrenergic α1D receptor (Homo sapiens, UniProt P25100); test: Radioligand binding, adrenergic α1D ([3H]Prazosin); conditions: compound at 0.1 μM, 0.1 µM
T1 construct: expressed in transfected cells; host or cells: HEK-293
T1 sequence (P25100 1-572): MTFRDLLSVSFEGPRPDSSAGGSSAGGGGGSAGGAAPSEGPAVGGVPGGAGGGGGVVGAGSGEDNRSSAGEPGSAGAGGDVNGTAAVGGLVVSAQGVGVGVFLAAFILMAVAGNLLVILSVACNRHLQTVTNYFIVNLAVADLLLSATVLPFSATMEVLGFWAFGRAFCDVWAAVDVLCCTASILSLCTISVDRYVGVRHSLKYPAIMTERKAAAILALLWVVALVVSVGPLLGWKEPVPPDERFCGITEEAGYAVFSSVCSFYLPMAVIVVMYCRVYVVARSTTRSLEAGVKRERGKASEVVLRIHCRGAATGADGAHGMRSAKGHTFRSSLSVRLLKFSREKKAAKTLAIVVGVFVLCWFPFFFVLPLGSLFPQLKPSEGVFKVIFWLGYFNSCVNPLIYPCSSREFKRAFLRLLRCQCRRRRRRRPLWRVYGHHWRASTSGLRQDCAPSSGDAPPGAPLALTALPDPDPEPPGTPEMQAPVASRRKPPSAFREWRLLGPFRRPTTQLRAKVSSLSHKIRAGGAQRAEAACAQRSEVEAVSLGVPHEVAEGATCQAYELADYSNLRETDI
Experimental: Compounds were incubated with 0.6 nM [^3H]Prazosin for 60 min at 25° C. Non-specific binding was estimated in the presence of 10 μM phentolamine. Receptor proteins were filtered and washed, the filters were then counted to determine [^3H]Prazosin specifically bound. […] Biochemical assay results are presented as the percent inhibition of specific binding in Table B1.

[2] = molecular target: T2, human recombinant adrenergic α2B receptor (Homo sapiens, UniProt P18089); test: Radioligand binding, adrenergic α2B ([3H]Rauwolscine)
T2 construct: expressed in transfected cells; host or cells: CHO-K1
T2 sequence (P18089 1-450): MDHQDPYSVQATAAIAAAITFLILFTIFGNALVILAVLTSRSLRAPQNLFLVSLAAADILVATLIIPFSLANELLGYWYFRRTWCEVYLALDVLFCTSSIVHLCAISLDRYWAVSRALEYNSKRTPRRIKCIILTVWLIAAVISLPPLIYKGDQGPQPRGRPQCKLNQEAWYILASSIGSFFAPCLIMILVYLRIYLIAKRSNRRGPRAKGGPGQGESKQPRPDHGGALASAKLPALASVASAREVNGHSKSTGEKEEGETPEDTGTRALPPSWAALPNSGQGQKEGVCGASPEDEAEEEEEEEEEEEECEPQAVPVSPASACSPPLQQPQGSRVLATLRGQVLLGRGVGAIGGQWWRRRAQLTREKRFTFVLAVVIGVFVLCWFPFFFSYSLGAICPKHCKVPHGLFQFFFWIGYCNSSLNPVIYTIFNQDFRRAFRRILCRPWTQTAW
In short: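 Receptor expressed in CHO-K1 cells, assayed in 50 mM Tris-HCl pH 7.4 with 12.5 mM MgCl2, 1 mM EDTA and 0.2% BSA. Compounds were incubated with 2.5 nM [3H]Rauwolscine for 60 min at 25° C; 10 μM Prazosin defined non-specific binding. Filter counting gave percent inhibition of specific binding.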

[3] = molecular target: T3, rat adrenergic α1B receptor (Rattus norvegicus, UniProt P15823); test: Radioligand binding, adrenergic α1B ([3H]Prazosin); set-up: species or system Wistar Rat; conditions: compound at 0.1 μM; for Percentage inhibition of ligand binding, Adrenergic α1B (0.1 μM): repeat datapoints each shown
T3 construct: rat adrenergic α1B receptor obtained from Wistar Rat liver; from tissue; host or cells: Wistar rat liver
T3 sequence (P15823 1-515): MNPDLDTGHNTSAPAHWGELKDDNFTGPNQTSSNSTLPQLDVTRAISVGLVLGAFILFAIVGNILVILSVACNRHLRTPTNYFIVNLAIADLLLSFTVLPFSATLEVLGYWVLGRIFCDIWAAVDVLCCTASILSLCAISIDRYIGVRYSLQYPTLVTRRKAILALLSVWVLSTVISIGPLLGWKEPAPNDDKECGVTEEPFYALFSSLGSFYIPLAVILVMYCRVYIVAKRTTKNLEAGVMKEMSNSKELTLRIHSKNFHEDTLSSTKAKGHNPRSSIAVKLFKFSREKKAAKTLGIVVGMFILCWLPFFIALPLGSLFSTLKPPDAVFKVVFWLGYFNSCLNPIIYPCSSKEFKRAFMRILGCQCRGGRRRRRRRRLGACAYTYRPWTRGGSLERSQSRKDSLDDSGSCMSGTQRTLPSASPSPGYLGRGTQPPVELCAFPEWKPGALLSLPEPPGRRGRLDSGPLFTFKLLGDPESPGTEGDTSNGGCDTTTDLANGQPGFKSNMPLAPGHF
In short: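 Incubation ran 60 min at 25 °C in Tris-HCl buffer (50 mM, pH 7.4, 0.5 mM EDTA) with Wistar rat liver α1B receptor. 10 μM phentolamine set non-specific binding.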

[4] = molecular target: T4, human recombinant adrenergic α2A receptor (Homo sapiens, UniProt P08913); test: Radioligand binding, adrenergic α2A ([3H]MK-912); conditions: compound at 0.1 μM, [3H]MK-912
T4 construct: expressed in transfected cells; host or cells: insect Sf9 cells
T4 sequence (P08913 1-465): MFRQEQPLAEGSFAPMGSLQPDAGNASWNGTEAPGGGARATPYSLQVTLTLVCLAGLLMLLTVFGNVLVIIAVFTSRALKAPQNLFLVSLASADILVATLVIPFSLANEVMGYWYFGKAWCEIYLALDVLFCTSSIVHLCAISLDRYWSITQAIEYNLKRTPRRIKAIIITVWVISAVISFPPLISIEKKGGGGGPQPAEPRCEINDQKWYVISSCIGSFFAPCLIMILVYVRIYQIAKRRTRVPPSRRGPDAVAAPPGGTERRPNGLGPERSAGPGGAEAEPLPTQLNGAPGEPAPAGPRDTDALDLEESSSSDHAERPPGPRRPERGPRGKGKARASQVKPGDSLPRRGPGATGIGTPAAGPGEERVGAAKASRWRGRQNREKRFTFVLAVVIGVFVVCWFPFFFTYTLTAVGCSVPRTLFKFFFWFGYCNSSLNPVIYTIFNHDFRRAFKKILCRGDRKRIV
In short: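 Receptor expressed in insect Sf9 cells, assayed in 50 mM Tris-HCl pH 7.4 with 12.5 mM MgCl2 and 2 mM EDTA. Compounds incubated with 1 nM [3H]MK-912 for 60 min at 25 °C; nonspecific binding defined with 10 μM WB-4101. Filter-bound radioactivity counted; values are percent inhibition of specific binding.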

Row | Compound | Percentage inhibition of ligand binding, Adrenergic α1D [1] [%] | Percentage inhibition of ligand binding, Adrenergic α1B ([3]; 0.1 µM) [%] | Percentage inhibition of ligand binding, Adrenergic α2A ([4]; 0.1 µM) [%] | Percentage inhibition of ligand binding, Adrenergic α1B [3] [%] | Percentage inhibition of ligand binding, Adrenergic α2B ([2]; compound at 0.03 μM, 0.03 µM) [%] | other results
1 | CCCCC(O)(Cn1c2c(c3cc(Cl)ccc31)CN(C)CC2)c1ccc(F)cc1 (single isomer, unassigned) [33a] |  |  |  |  |  | Percentage inhibition of ligand binding, Adrenergic α1D (0.1 μM) ([1]; repeat datapoints each shown): 23%; Percentage inhibition of ligand binding, Adrenergic α2B (0.1 μM) ([2]; compound at 0.1 μM, repeat datapoints each shown, 0.1 µM): −3%; Percentage inhibition of ligand binding, Adrenergic α1B (0.1 μM) ([3]; 0.1 µM): −2%
2 | CC(Cn1c2c(c3ccccc31)CN(C)CC2)c1ccc(F)cc1 (single isomer, unassigned) [272b] | 36 | 30 | 68 |  |  | 
3 | Cc1ccc2c(c1)c1c(n2CC(C)c2ccc(F)cc2)CCN(C)C1 (single isomer, unassigned) [288a] | 88 |  |  |  |  | Percentage inhibition of ligand binding, Adrenergic α2B ([2]; compound at 0.1 μM): 104%
4 | Cc1ccc2c(c1)c1c(n2CC(C)c2ccc(F)cc2)CCN(C)C1 (single isomer, unassigned) [288b] | 17 |  |  | 39 |  | Percentage inhibition of ligand binding, Adrenergic α2A [4]: 67%
5 | Cc1ccc2c(c1)c1c(n2CC(C)c2ccc(C)nc2)CCN(C)C1 (single isomer, unassigned) [289a] | 57 | 51 | 60 |  |  | 
6 | OCCN1CCc2c(c3cc(Cl)ccc3n2CC(O)c2cccnc2)C1 (single isomer, unassigned) [II-94b] |  |  | −5 | 7 | 24 | 
7 | Cc1cnc2c(c1)c1c(n2CC(C)(O)c2cccnc2)CCN(C)C1 (single isomer, unassigned) [II-99a] |  | 12 | 24 |  | 49 | 
8 | Cc1cnc2c(c1)c1c(n2CC(C)(O)c2cccnc2)CCN(C)C1 (single isomer, unassigned) [II-99b] |  | 5 | 16 |  | 7 | 
9 | Cc1cnc2c(c1)c1c(n2CC(O)c2ccc(C)nc2)CCN(C)C1 (single isomer, unassigned) [II-100b] |  |  | 4 | 24 | 1 | 
10 | Cc1ccc2c(c1)c1c(n2CC(O)c2ccncc2)CN(C)CC1 (centres unmarked) [8a] |  |  |  |  |  | Percentage inhibition of ligand binding, Adrenergic α2B (0.03 μM) ([2]; compound at 0.03 μM, repeat datapoints each shown, 0.03 µM): 22%; Percentage inhibition of ligand binding, Adrenergic α1B (0.1 μM) ([3]; 0.1 µM): 39%; Percentage inhibition of ligand binding, Adrenergic α2A (0.1 μM) ([4]; repeat datapoints each shown, 0.1 µM): 15%
